Assay results published in patent publication US12497365B2, “4-pyridinyl formamide compound or derivative thereof, preparation method therefor, herbicidal composition and use thereof” (Qingdao Kingagroot Chemical Compound Co., Ltd., priority 2019, dated 2025).

Legend:
Experiment in all cases: Weeding effect in post-emergence stage
Format in all cases: in vivo
Settings in all cases: active ingredient 2000 g/ha, 3 weeks after application, fresh weight control rate
Abutilon theophrasti = tested on: Abutilon theophrasti
Method in brief: (§1)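 Greenhouse-grown weeds at the 2-3 leaf stage, about 2 weeks after sowing, were sprayed with compound at 2000-125 g/ha. The spray solution was made from acetone with Tween 80 and 1.5 L/ha methyl oleate concentrate as synergist. Fresh-weight growth control was scored 3 weeks after treatment.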

[1] = tested on: Amaranthus retroflexus L.
Method in brief: as §1

Chenopodium album = tested on: Chenopodium album
Method in brief: as §1

Descurainia sophia = tested on: Descurainia sophia
Method in brief: as §1

SMILES	Weeding effect, activity level (growth control rate), Abutilon theophrasti (Abutilon theophrasti)	Weeding effect, activity level (growth control rate), Amaranthus retroflexus L. [1]	Weeding effect, activity level (growth control rate), Chenopodium album (Chenopodium album)	Weeding effect, activity level (growth control rate), Descurainia sophia (Descurainia sophia)
Cn1nnnc1NC(=O)c1ccnc(-c2ccc(F)c(F)c2)c1Cl [Compound 1-66]	5 (Level 5: growth control rate is above 85%)	5 (Level 5: growth control rate is above 85%)	5 (Level 5: growth control rate is above 85%)	5 (Level 5: growth control rate is above 85%)
Cc1ccc(F)c(-c2nccc(C(=O)Nc3nnnn3C)c2Cl)c1 [Compound 1-67]	5 (Level 5: growth control rate is above 85%)	5 (Level 5: growth control rate is above 85%)	5 (Level 5: growth control rate is above 85%)	5 (Level 5: growth control rate is above 85%)
Cc1ccc(-c2nccc(C(=O)Nc3nnnn3C)c2Cl)cc1F [Compound 1-68]	5 (Level 5: growth control rate is above 85%)	5 (Level 5: growth control rate is above 85%)	5 (Level 5: growth control rate is above 85%)	5 (Level 5: growth control rate is above 85%)
Cc1ccc(-c2nccc(C(=O)Nc3nnnn3C)c2Cl)c(F)c1 [Compound 1-69]	5 (Level 5: growth control rate is above 85%)	5 (Level 5: growth control rate is above 85%)	5 (Level 5: growth control rate is above 85%)	5 (Level 5: growth control rate is above 85%)
COc1cccc(F)c1-c1nccc(C(=O)Nc2nnnn2C)c1Cl [Compound 1-70]	5 (Level 5: growth control rate is above 85%)	5 (Level 5: growth control rate is above 85%)	5 (Level 5: growth control rate is above 85%)	5 (Level 5: growth control rate is above 85%)
COc1cc(F)cc(-c2nccc(C(=O)Nc3nnnn3C)c2Cl)c1 [Compound 1-71]	5 (Level 5: growth control rate is above 85%)	5 (Level 5: growth control rate is above 85%)	5 (Level 5: growth control rate is above 85%)	5 (Level 5: growth control rate is above 85%)
COc1cccc(-c2nccc(C(=O)Nc3nnnn3C)c2Cl)c1F [Compound 1-72]	5 (Level 5: growth control rate is above 85%)	5 (Level 5: growth control rate is above 85%)	5 (Level 5: growth control rate is above 85%)	5 (Level 5: growth control rate is above 85%)
Cn1nnnc1NC(=O)c1ccnc(-c2ccc(F)cc2C(F)(F)F)c1Cl [Compound 1-73]	5 (Level 5: growth control rate is above 85%)	5 (Level 5: growth control rate is above 85%)	5 (Level 5: growth control rate is above 85%)	5 (Level 5: growth control rate is above 85%)
Cn1nnnc1NC(=O)c1ccnc(-c2ccc(C(F)(F)F)cc2F)c1Cl [Compound 1-74]	5 (Level 5: growth control rate is above 85%)	5 (Level 5: growth control rate is above 85%)	5 (Level 5: growth control rate is above 85%)	5 (Level 5: growth control rate is above 85%)
